# From paper PMC7138817, “The [4Fe-4S] cluster of sulfurtransferase TtuA desulfurizes TtuB during tRNA modification in Thermus thermophilus” (Communications Biology, 2020)
# The star is where a group is joined. thiocarboxylate = C-terminal -COSH in place of -COOH, S*
# T1: holo-TtuA (Thermus thermophilus, UniProt Q72LF3)
# T1 construct: TtuA without TtuB, prepared as in an earlier publication
# T1 sequence (Q72LF3 1-321): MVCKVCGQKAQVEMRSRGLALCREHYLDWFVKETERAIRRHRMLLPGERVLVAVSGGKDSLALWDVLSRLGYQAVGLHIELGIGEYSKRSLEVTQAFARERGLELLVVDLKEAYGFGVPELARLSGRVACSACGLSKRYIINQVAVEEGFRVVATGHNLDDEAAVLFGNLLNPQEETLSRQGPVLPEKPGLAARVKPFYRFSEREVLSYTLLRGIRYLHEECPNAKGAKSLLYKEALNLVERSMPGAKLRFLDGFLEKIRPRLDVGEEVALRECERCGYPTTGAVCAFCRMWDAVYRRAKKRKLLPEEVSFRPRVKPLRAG
# T2: holo-TtuA (purified alone, with [4Fe-4S] cluster) used for EPR with added TtuB-COSH (Thermus thermophilus, UniProt Q72LF3 1-321)
# T2 construct: TtuA, Thermus thermophilus; carries a [4Fe-4S] cluster, reduced with sodium dithionite for EPR; also called DT-reduced TtuA; source: purified
# T2 sequence (looked up): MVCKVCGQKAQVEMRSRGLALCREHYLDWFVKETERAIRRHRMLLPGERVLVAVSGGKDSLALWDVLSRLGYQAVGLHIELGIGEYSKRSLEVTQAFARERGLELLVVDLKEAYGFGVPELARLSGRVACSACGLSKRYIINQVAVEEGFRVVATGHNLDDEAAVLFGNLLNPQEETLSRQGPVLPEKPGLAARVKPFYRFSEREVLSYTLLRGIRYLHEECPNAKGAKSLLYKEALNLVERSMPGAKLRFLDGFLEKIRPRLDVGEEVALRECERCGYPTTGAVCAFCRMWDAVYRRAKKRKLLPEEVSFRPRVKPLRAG
# Assays:
# [1] = molecular target: T3, holo-TthTtuA–TthTtuB complex (Thermus thermophilus, UniProt Q72LF3+Q72LF4); test: X-ray crystal structure, […] Å; format: binding; details: reconstituted with ferric chloride and sulfide, anaerobic; bound by three Cys of TtuA, unique Fe coordinated by C-terminal carboxylate of TtuB
# T3 construct: gene ttuA; co-expressed in E. coli B834(DE3) from pETDuet-1; His6-tag plus four residues at N-terminus of TtuB, TtuA untagged; TtuB-COOH form; TtuA-TtuB heterodimers
# holo-TtuA = molecular target: T1, holo-TtuA; test: EPR spectroscopy, X-band, […] K; format: binding; details: dithionite-reduced, anaerobic, no TtuB
# [2] = molecular target: T2, holo-TtuA (purified alone, with …); test: EPR spectroscopy; purified holo-TtuA mixed with TtuB-COSH (molar ratio 1:3, 0.6 mM:2.0 mM), incubated at 298 K for 5 min, reduced with sodium dithionite, frozen; X-band spectra at 7, 12 and 29 K; compared with TtuA without TtuB-COSH; details: both partners purified
binding result [2],Molecule,"X-ray crystal structure, 2.2 Å [1]","EPR spectroscopy, X-band, 12 K (holo-TtuA)"
,[S]12[Fe]3[S]4[Fe]1[S]1[Fe]2[S]3[Fe]41 [[4Fe-4S] cluster],unique Fe site of the [4Fe-4S] cluster and the C-terminus of TtuB was observed,TtuA in the absence of TtuB-COSH is the typical rhombic signal of the [4Fe-4S] cluster
binds,"TtuB-COSH (TtuB with thiocarboxylated C-terminus) (natural protein, Thermus thermophilus, UniProt Q72LF4 1-65, looked up, TtuB, ubiquitin-like sulfur donor protein, Thermus thermophilus; also called thiocarboxylated TtuB) MRVVLRLPERKEVEVKGNRPLREVLEELGLNPETVVAVRGEELLTLEDEVREEDTLEVLSAISGG-thiocarboxylate",,
